Source: patent publication US20250034122A1, “SUBSTITUTED N-CYANOPYRROLIDINES WITH ACTIVITY AS USP30 INHIBITORS” (MISSION THERAPEUTICS LIMITED, priority 2021, published 2025)

How the values were obtained:
USP30 = USP30 (Homo sapiens (Human), UniProt Q70CQ3); experiment: USP30 biochemical IC50 assay (fluorescence polarisation); conditions: geomean; USP30 4 nM, 30 min pre-incubation, TAMRA-peptide-ubiquitin FP substrate
Description: Dilution plates were prepared at 21 times the final concentration (2100 μM for a final concentration of 100 μM) in 50% DMSO in a 96-well polypropylene V-bottom plate (Greiner #651201). A typical 8-point dilution series would be 100, 30, 10, 3, 1, 0.3, 0.1, 0.03 μM final. Reactions were performed in duplicate in black 384 well plates (small volume, Greiner 784076) in a final reaction volume of 21 μl.
Either lpl of 50% DMSO or diluted compound was added to the plate. USP30 (Boston Biochem #E582) was diluted in reaction buffer (40 mM Tris, pH 7.5, 0.005% Tween 20, 0.5 mg/ml BSA, 5 mM beta-mercaptoethanol) to achieve a final assay concentration of 4 nM, and 10 μl of diluted USP30 was added to the compound. Enzyme and compound were incubated for 30 min at room temp. Reactions were initiated by the addition of 50 nM of TAMRA labelled peptide linked to ubiquitin via an isopeptide bond as fluorescence polarisation substrate. Reactions were read immediately after addition of substrate and following a 2-hour incubation at room temperature. Readings were performed on a Pherastar Plus (BMG Labtech). λ Excitation 540 nm; λ Emission 590 nm.

TOM20 ubiquitylation = experiment: TOM20-ubiquitylation assay (western blot of cell lysates); type: cell-based, Human; conditions: antimycin A/oligomycin mitophagy trigger, concentration for 1.5-fold gain of TOM20-Ub
Description: TOM20-Ubiquitylation Assay Human cell lines can be challenged with mitochondrial depolarizing agents (ionophores (eg. CCCP, valinomycin), mitochondrial complex inhibitors (oligomycin, antimycin A)) to induce ubiquitylation of TOM20, which is then further promoted in the presence of USP30 inhibitors. TOM20 ubiquitylation is subsequently assessed through western blotting of the cell lysates, with TOM20 ubiquitylation adduct detection possible due to an 8 kDa molecule weight increase for each molecule of ubiquitin added, resulting in laddering of a TOM20 immunoreactive band. TOM20-ubiquitylation levels can be quantified using chemiluminescence densitometry of laddered immunoreactive bands.

USP30, sequence (Q70CQ3 57-517): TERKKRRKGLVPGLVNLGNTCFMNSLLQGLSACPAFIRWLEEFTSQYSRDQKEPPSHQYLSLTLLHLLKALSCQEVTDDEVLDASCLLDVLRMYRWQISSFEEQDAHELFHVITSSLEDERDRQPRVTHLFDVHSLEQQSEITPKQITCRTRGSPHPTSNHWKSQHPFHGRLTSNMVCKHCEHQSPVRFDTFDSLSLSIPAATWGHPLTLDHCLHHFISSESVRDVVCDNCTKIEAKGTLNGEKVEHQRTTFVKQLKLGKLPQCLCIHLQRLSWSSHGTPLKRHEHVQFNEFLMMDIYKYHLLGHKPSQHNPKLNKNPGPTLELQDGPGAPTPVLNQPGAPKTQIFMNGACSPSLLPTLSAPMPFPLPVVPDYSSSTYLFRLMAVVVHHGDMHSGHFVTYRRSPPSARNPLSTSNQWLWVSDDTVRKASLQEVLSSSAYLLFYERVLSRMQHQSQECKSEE

| SMILES | IC50 (USP30) [nM] | EC1.5x (Geomean, nM); TOM20-Ub 1.5-fold gain (TOM20 ubiquitylation) [nM] |
| --- | --- | --- |
| N#CN1C[C@H](NC(=O)c2nnc(-c3cc(OC(F)(F)F)ccc3C3CC3)o2)C[C@H]1Cn1nccn1 [Example 45, N-((3R,5S)-5-((2H-1,2,3-Triazol-2-yl)methyl)-1-cyanopyrrolidin-3-yl)-5-(2-cyclopropyl-5-(trifluoromethoxy)phenyl)-1,3,4-oxadiazole-2-carboxamide] | 7 | – |
| N#CN1C[C@H](NC(=O)c2ncc(-c3cccc(OC(F)(F)F)c3)o2)C[C@H]1Cn1cccn1 [Example 27, N-((3R,5S)-5-((1H-Pyrazol-1-yl)methyl)-1-cyanopyrrolidin-3-yl)-5-(3-(trifluoromethoxy)phenyl)oxazole-2-carboxamide] | 9 | – |
| Cn1ncc2cc(-c3ccc(C(=O)N[C@@H]4C[C@@H](Cn5ccnn5)N(C#N)C4)c(F)c3)ccc21 [Example 35, N-((3R,5S)-5-((1H-1,2,3-Triazol-1-yl)methyl)-1-cyanopyrrolidin-3-yl)-2-fluoro-4-(1-methyl-1H-indazol-5-yl)benzamide] | 27 | – |
| N#Cc1cccc(-c2cnc(C(=O)N[C@@H]3C[C@@H](Cn4nccn4)N(C#N)C3)o2)c1 [Example 17, N-((3R,5S)-5-((2H-1,2,3-Triazol-2-yl)methyl)-1-cyanopyrrolidin-3-yl)-5-(3-cyanophenyl)oxazole-2-carboxamide] | 4 | 16 |
| N#CN1C[C@H](NC(=O)c2cc(-c3cccc(OC(F)(F)F)c3)ccn2)C[C@H]1Cn1ccnn1 [Example 25, N-((3R,5S)-5-((1H-1,2,3-Triazol-1-yl)methyl)-1-cyanopyrrolidin-3-yl)-4-(3-(trifluoromethoxy)phenyl)picolinamide] | 9 | – |
| N#Cc1ccc(C2CC2)c(-c2nnc(C(=O)N[C@@H]3C[C@@H](Cn4ccnn4)N(C#N)C3)o2)c1 [Example 14, N-((3R,5S)-5-((1H-1,2,3-Triazol-1-yl)methyl)-1-cyanopyrrolidin-3-yl)-5-(5-cyano-2-cyclopropylphenyl)-1,3,4-oxadiazole-2-carboxamide] | 4 | – |
| Cn1ncc2cc(-c3ccc(C(=O)N[C@@H]4C[C@@H](Cn5cccn5)N(C#N)C4)c(F)c3)ccc21 [Example 34, N-((3R,5S)-5-((1H-Pyrazol-1-yl)methyl)-1-cyanopyrrolidin-3-yl)-2-fluoro-4-(1-methyl-1H-indazol-5-yl)benzamide] | 44 | – |
| N#CN1C[C@H](NC(=O)c2noc(-c3cc(OC(F)(F)F)ccc3C3CC3)n2)C[C@H]1Cn1ccnn1 [Example 51, N-((3R,5S)-5-((1H-1,2,3-Triazol-1-yl)methyl)-1-cyanopyrrolidin-3-yl)-5-(2-cyclopropyl-5-(trifluoromethoxy)phenyl)-1,2,4-oxadiazole-3-carboxamide] | 14 | – |
| N#CN1C[C@H](NC(=O)c2ncc(-c3ccc(F)c(OC(F)(F)F)c3)o2)C[C@H]1Cn1ccnn1 [Example 39, N-((3R,5S)-5-((1H-1,2,3-Triazol-1-yl)methyl)-1-cyanopyrrolidin-3-yl)-5-(4-fluoro-3-(trifluoromethoxy)phenyl)oxazole-2-carboxamide] | 8 | – |
| N#CN1C[C@H](NC(=O)c2ccc(-c3cccc4[nH]ncc34)nc2)C[C@H]1Cn1cccn1 [Example 52, N-((3R,5S)-5-((1H-Pyrazol-1-yl)methyl)-1-cyanopyrrolidin-3-yl)-6-(1H-indazol-4-yl)nicotinamide] | 15 | – |
| N#Cc1cccc(-c2cnc(C(=O)N[C@@H]3C[C@@H](Cn4cnnc4)N(C#N)C3)o2)c1 [Example 19, N-((3R,5S)-5-((4H-1,2,4-Triazol-4-yl)methyl)-1-cyanopyrrolidin-3-yl)-5-(3-cyanophenyl)oxazole-2-carboxamide] | 2 | – |
| N#CN1C[C@H](NC(=O)N2CCC(c3cccc(OC(F)(F)F)c3)C2)C[C@H]1Cn1cccn1 (single isomer, unassigned) [Example 37] | 120 | – |
| N#CN1C[C@H](NC(=O)N2CCC(c3cccc(OC(F)(F)F)c3)C2)C[C@H]1Cn1cccn1 (stereo partly drawn) [Example 38] | 210 | – |
| Cc1ccn(C[C@@H]2C[C@@H](NC(=O)c3ncc(-c4cccc(OC(F)(F)F)c4)o3)CN2C#N)n1 [Example 28, N-((3R,5S)-1-Cyano-5-((3-methyl-1H-pyrazol-1-yl)methyl)pyrrolidin-3-yl)-5-(3-(trifluoromethoxy)phenyl)oxazole-2-carboxamide] | 10 | – |
| N#Cc1cnc(N2CCC2)c(-c2nnc(C(=O)N[C@@H]3C[C@@H](Cn4ccnn4)N(C#N)C3)o2)c1 [Example 40, N-((3R,5S)-5-((1H-1,2,3-Triazol-1-yl)methyl)-1-cyanopyrrolidin-3-yl)-5-(2-(azetidin-1-yl)-5-cyanopyridin-3-yl)-1,3,4-oxadiazole-2-carboxamide] | 12 | – |
| N#CN1C[C@H](NC(=O)c2nnc(-c3cc(OC(F)(F)F)ccc3Cl)o2)C[C@H]1Cn1ccnn1 [Example 42, N-((3R,5S)-5-((1H-1,2,3-Triazol-1-yl)methyl)-1-cyanopyrrolidin-3-yl)-5-(2-chloro-5-(trifluoromethoxy)phenyl)-1,3,4-oxadiazole-2-carboxamide] | 6 | – |
| N#CN1C[C@H](NC(=O)c2nnc(-c3cc(OC(F)(F)F)ccc3OC3CC3)o2)C[C@H]1Cn1ccnn1 [Example 15, N-((3R,5S)-5-((1H-1,2,3-Triazol-1-yl)methyl)-1-cyanopyrrolidin-3-yl)-5-(2-cyclopropoxy-5-(trifluoromethoxy)phenyl)-1,3,4-oxadiazole-2-carboxamide] | 8 | – |
| CCc1cccc(-c2cnc(C(=O)N[C@@H]3C[C@@H](Cn4ccnn4)N(C#N)C3)o2)c1 [Example 11, N-((3R,5S)-5-((1H-1,2,3-Triazol-1-yl)methyl)-1-cyanopyrrolidin-3-yl)-5-(3-ethylphenyl)oxazole-2-carboxamide] | 4 | – |
| N#CN1C[C@H](NC(=O)c2nnc(-c3cc(OC(F)(F)F)ccc3C3CC3)o2)C[C@H]1Cn1cnnc1 [Example 49, N-((3R,5S)-5-((4H-1,2,4-Triazol-4-yl)methyl)-1-cyanopyrrolidin-3-yl)-5-(2-cyclopropyl-5-(trifluoromethoxy)phenyl)-1,3,4-oxadiazole-2-carboxamide] | 6 | – |
| N#CN1C[C@H](NC(=O)c2nnc(-c3cccc(OC(F)(F)F)c3)o2)C[C@H]1Cn1ccnn1 [Example 43, N-((3R,5S)-5-((1H-1,2,3-Triazol-1-yl)methyl)-1-cyanopyrrolidin-3-yl)-5-(3-(trifluoromethoxy)phenyl)-1,3,4-oxadiazole-2-carboxamide] | 12 | – |
| N#CN1C[C@H](NC(=O)N2CCC(c3cccc(OC(F)(F)F)c3)C2)C[C@H]1Cn1cccn1 (stereo partly drawn) [Example 36, N-((3R,5S)-5-((1H-Pyrazol-1-yl)methyl)-1-cyanopyrrolidin-3-yl)-3-(3-(trifluoromethoxy)phenyl) pyrrolidine-1-carboxamide] | 100 | – |
| N#CN1C[C@H](NC(=O)c2nnc(-c3cc(OC(F)(F)F)ccc3C3CC3)o2)C[C@H]1Cn1cccn1 [Example 44, N-((3R,5S)-5-((1H-Pyrazol-1-yl)methyl)-1-cyanopyrrolidin-3-yl)-5-(2-cyclopropyl-5-(trifluoromethoxy)phenyl)-1,3,4-oxadiazole-2-carboxamide] | 5 | – |
| Cc1ccnn1C[C@@H]1C[C@@H](NC(=O)c2ncc(-c3cccc(OC(F)(F)F)c3)o2)CN1C#N [Example 29, N-((3R,5S)-1-Cyano-5-((5-methyl-1H-pyrazol-1-yl)methyl)pyrrolidin-3-yl)-5-(3-(trifluoromethoxy)phenyl)oxazole-2-carboxamide] | 55 | – |
| CCCc1ccc(OC(F)(F)F)cc1-c1nnc(C(=O)N[C@@H]2C[C@@H](Cn3ccnn3)N(C#N)C2)o1 [Example 48, N-((3R,5S)-5-((1H-1,2,3-Triazol-1-yl)methyl)-1-cyanopyrrolidin-3-yl)-5-(2-propyl-5-(trifluoromethoxy)phenyl)-1,3,4-oxadiazole-2-carboxamide] | 5 | – |
| N#CN1C[C@H](NC(=O)c2nnc(-c3cc(OC(F)(F)F)ccc3C3CC3)o2)C[C@H]1Cn1cncn1 [Example 47, N-((3R,5S)-5-((1H-1,2,4-Triazol-1-yl)methyl)-1-cyanopyrrolidin-3-yl)-5-(2-cyclopropyl-5-(trifluoromethoxy)phenyl)-1,3,4-oxadiazole-2-carboxamide] | 5 | – |
| N#Cc1ccc(C2CC2)c(-c2cnc(C(=O)N[C@@H]3C[C@@H](Cn4ccnn4)N(C#N)C3)o2)c1 [Example 9, N-((3R,5S)-5-((1H-1,2,3-Triazol-1-yl)methyl)-1-cyanopyrrolidin-3-yl)-5-(5-cyano-2-cyclopropylphenyl)oxazole-2-carboxamide] | 2 | – |
| N#CN1C[C@H](NC(=O)c2nc(-c3cc(OC(F)(F)F)ccc3C3CC3)no2)C[C@H]1Cn1ccnn1 [Example 50, N-((3R,5S)-5-((1H-1,2,3-Triazol-1-yl)methyl)-1-cyanopyrrolidin-3-yl)-3-(2-cyclopropyl-5-(trifluoromethoxy)phenyl)-1,2,4-oxadiazole-5-carboxamide] | 5 | – |
| N#CN1C[C@H](NC(=O)c2ncc(-c3cccc(OC(F)(F)F)c3)o2)C[C@H]1Cn1ccnn1 [Example 4, N-((3R,5S)-5-((1H-1,2,3-Triazol-1-yl)methyl)-1-cyanopyrrolidin-3-yl)-5-(3-(trifluoromethoxy)phenyl)oxazole-2-carboxamide] | 3 | – |
| N#Cc1cnc(N2CCCC2)c(-c2nnc(C(=O)N[C@@H]3C[C@@H](Cn4ccnn4)N(C#N)C3)o2)c1 [Example 41, N-((3R,5S)-5-((1H-1,2,3-Triazol-1-yl)methyl)-1-cyanopyrrolidin-3-yl)-5-(5-cyano-2-(pyrrolidin-1-yl)pyridin-3-yl)-1,3,4-oxadiazole-2-carboxamide] | 9 | – |
